Calls of active or inactive are those of the source. The rule behind the calls is not given here.
Experiments:
Format in all cases: functional
[1] = tested on: HL-60(TB); experiment: Cytotoxicity against human HL-60(TB) cells at 10 uM after 48 hrs by SRB assay
[2] = tested on: TK-10; experiment: Cytotoxicity against human TK10 cells at 10 uM after 48 hrs by SRB assay
[3] = Cytotoxicity against human Caki1 cells at 10 uM after 48 hrs by SRB assay; settings: CAKI-1, 48 h, read-out: GI
[4] = tested on: MDA-MB-435; experiment: Cytotoxicity against human MDA-MB-435 cells at 10 uM after 48 hrs by SRB assay; settings: MDA-MB-435, 48 h, read-out: GI
[5] = tested on: SK-MEL-28; experiment: Cytotoxicity against human SK-MEL-28 cells at 10 uM after 48 hrs by SRB assay
[6] = tested on: SK-MEL-2; experiment: Cytotoxicity against human SK-MEL-2 cells at 10 uM after 48 hrs by SRB assay
[7] = Cytotoxicity against human HOP62 cells at 10 uM after 48 hrs by SRB assay; settings: HOP-62, 48 h, read-out: GI
[8] = Cytotoxicity against human OVCAR5 cells at 10 uM after 48 hrs by SRB assay; settings: OVCAR-5, 48 h, read-out: GI
[9] = tested on: M14; experiment: Cytotoxicity against human M14 cells at 10 uM after 48 hrs by SRB assay
[10] = tested on: SN12C; experiment: Cytotoxicity against human SN12C cells at 10 uM after 48 hrs by SRB assay; settings: read-out: GI
[11] = tested on: MDA-MB-231; experiment: Cytotoxicity against human MDA-MB-231 cells at 10 uM after 48 hrs by SRB assay; settings: MDA-MB-231, 48 h, read-out: GI
[12] = Cytotoxicity against human IGROV1 cells at 10 uM after 48 hrs by SRB assay; settings: IGROV-1, 48 h, read-out: GI
[13] = Cytotoxicity against human SF539 cells at 10 uM after 48 hrs by SRB assay; settings: SF-539, 48 h, read-out: GI
[14] = Cytotoxicity against human SNB75 cells at 10 uM after 48 hrs by SRB assay; settings: SNB-75, 48 h, read-out: GI
[15] = tested on: U-251; experiment: Cytotoxicity against human U251 cells at 10 uM after 48 hrs by SRB assay
[16] = tested on: Malme-3M; experiment: Cytotoxicity against human MALME-3M cells at 10 uM after 48 hrs by SRB assay
[17] = Cytotoxicity against human UACC257 cells at 10 uM after 48 hrs by SRB assay; settings: UACC-257, 48 h, read-out: GI
[18] = tested on: DU-145; experiment: Cytotoxicity against human DU145 cells at 10 uM after 48 hrs by SRB assay
[19] = tested on: K562; experiment: Cytotoxicity against human K562 cells at 10 uM after 48 hrs by SRB assay; settings: K562, 48 h, read-out: GI
[20] = tested on: NCI-H522; experiment: Cytotoxicity against human NCI-H522 cells at 10 uM after 48 hrs by SRB assay; settings: NCI-H522, 48 h, read-out: GI
[21] = tested on: NCI-H460; experiment: Cytotoxicity against human NCI-H460 cells at 10 uM after 48 hrs by SRB assay
[22] = tested on: T47D; experiment: Cytotoxicity against human T47D cells at 10 uM after 48 hrs by SRB assay; settings: read-out: GI
[23] = tested on: SR; experiment: Cytotoxicity against human SR cells at 10 uM after 48 hrs by SRB assay; settings: read-out: GI
[24] = Cytotoxicity against human LOXIMVI cells at 10 uM after 48 hrs by SRB assay; settings: LOX IMVI, read-out: GI
[25] = Cytotoxicity against human PC3 cells at 10 uM after 48 hrs by SRB assay; settings: PC-3, 48 h, read-out: GI
[26] = tested on: RXF 393; experiment: Cytotoxicity against human RXF393 cells at 10 uM after 48 hrs by SRB assay
[27] = tested on: NCI-H226; experiment: Cytotoxicity against human NCI-H226 cells at 10 uM after 48 hrs by SRB assay; settings: NCI-H226, 48 h, read-out: GI
[28] = tested on: MDA-MB-468; experiment: Cytotoxicity against human MDA-MB-468 cells at 10 uM after 48 hrs by SRB assay; settings: MDA-MB-468, 48 h, read-out: GI
[29] = Cytotoxicity against human HCT116 cells at 10 uM after 48 hrs by SRB assay; settings: HCT-116, 48 h, read-out: GI
[30] = tested on: MCF7; experiment: Cytotoxicity against human MCF7 cells at 10 uM after 48 hrs by SRB assay; settings: MCF7, 48 h, read-out: GI
[31] = Cytotoxicity against human OVCAR8 cells at 10 uM after 48 hrs by SRB assay; settings: OVCAR-8, 48 h, read-out: GI
[32] = tested on: KM12; experiment: Cytotoxicity against human KM12 cells at 10 uM after 48 hrs by SRB assay
[33] = Cytotoxicity against human SNB19 cells at 10 uM after 48 hrs by SRB assay; settings: SNB-19, 48 h, read-out: GI
[34] = Cytotoxicity against human SF295 cells at 10 uM after 48 hrs by SRB assay; settings: SF-295, 48 h, read-out: GI
[35] = Cytotoxicity against human UO31 cells at 10 uM after 48 hrs by SRB assay; settings: UO-31, 48 h, read-out: GI
[36] = Cytotoxicity against human OVCAR3 cells at 10 uM after 48 hrs by SRB assay; settings: OVCAR-3, 48 h, read-out: GI
[37] = Cytotoxicity against human RPMI8226 cells at 10 uM after 48 hrs by SRB assay; settings: RPMI-8226, 48 h, read-out: GI
[38] = tested on: A549; experiment: Cytotoxicity against human A549 cells at 10 uM after 48 hrs by SRB assay; settings: A549, 48 h, read-out: GI
[39] = tested on: SK-MEL-5; experiment: Cytotoxicity against human SK-MEL-5 cells at 10 uM after 48 hrs by SRB assay; settings: SK-MEL-5, 48 h, read-out: GI
[40] = Cytotoxicity against human SF268 cells at 10 uM after 48 hrs by SRB assay; settings: SF-268, 48 h, read-out: GI
[41] = Cytotoxicity against human BT549 cells at 10 uM after 48 hrs by SRB assay; settings: BT-549, 48 h, read-out: GI
[42] = Cytotoxicity against human COLO205 cells at 10 uM after 48 hrs by SRB assay; settings: COLO 205, 48 h, read-out: GI
[43] = Cytotoxicity against human Hs 578T cells at 10 uM after 48 hrs by SRB assay; settings: read-out: GI
[44] = tested on: ACHN; experiment: Cytotoxicity against human ACHN cells at 10 uM after 48 hrs by SRB assay; settings: read-out: GI
[45] = tested on: CCRF-CEM; experiment: Cytotoxicity against human CCRF-CEM cells at 10 uM after 48 hrs by SRB assay; settings: read-out: GI
[46] = Cytotoxicity against human HCT15 cells at 10 uM after 48 hrs by SRB assay; settings: HCT-15, 48 h, read-out: GI
[47] = tested on: HCC 2998; experiment: Cytotoxicity against human HCC2998 cells at 10 uM after 48 hrs by SRB assay
[48] = tested on: SK-OV-3; experiment: Cytotoxicity against human SKOV3 cells at 10 uM after 48 hrs by SRB assay
[49] = tested on: 786-0; experiment: Cytotoxicity against human 786-0 cells at 10 uM after 48 hrs by SRB assay; settings: 786-0, 48 h, read-out: GI
[50] = Cytotoxicity against human SW620 cells at 10 uM after 48 hrs by SRB assay; settings: SW-620, 48 h, read-out: GI
[51] = tested on: HT-29; experiment: Cytotoxicity against human HT-29 cells at 10 uM after 48 hrs by SRB assay; settings: HT-29, 48 h, read-out: GI
[52] = Cytotoxicity against human NCI-ADR-RES cells at 10 uM after 48 hrs by SRB assay; settings: read-out: GI
[53] = tested on: A498; experiment: Cytotoxicity against human A498 cells at 10 uM after 48 hrs by SRB assay; settings: A498, 48 h, read-out: GI
[54] = Cytotoxicity against human MOLT4 cells at 10 uM after 48 hrs by SRB assay; settings: MOLT-4, 48 h, read-out: GI
[55] = Cytotoxicity against human UACC62 cells at 10 uM after 48 hrs by SRB assay; settings: UACC-62, 48 h, read-out: GI
[56] = Cytotoxicity against human HOP92 cells at 10 uM after 48 hrs by SRB assay; settings: HOP-92, 48 h, read-out: GI
[57] = Cytotoxicity against human OVCAR4 cells at 10 uM after 48 hrs by SRB assay; settings: OVCAR-4, 48 h, read-out: GI

In the case of Cc1nc2cc(Nc3nc(Nc4ccc(F)cc4)nc(Nc4ccc(F)cc4)n3)ccc2n1Cc1ccccc1, the “growth inhibition (GI)” value [1] is reported as “inactive”, the “growth inhibition (GI)” value [2] is reported as “inactive” and the inhibition of growth at 10 µM [3] is reported as 10.1%. For the same compound, the inhibition of growth at 10 µM [4] was 0.94%, the “growth inhibition (GI)” value [5] was “inactive” and the “growth inhibition (GI)” value [6] was “inactive”. For the same compound, the inhibition of growth at 10 µM [7] was 8.91%, the inhibition of growth at 10 µM [8] was 4.24% and the “growth inhibition (GI)” value [9] was “inactive”. For the same compound, the inhibition of growth at 10 µM [10] was 5.75%, the inhibition of growth at 10 µM [11] was 24.5% and the inhibition of growth at 10 µM [12] was 16.9%. For the same compound, the inhibition of growth at 10 µM [13] was 10.4%, the inhibition of growth at 10 µM [14] was 24.8% and the “growth inhibition (GI)” value [15] was “inactive”. The “growth inhibition (GI)” value [16] was “inactive”, the inhibition of growth at 10 µM [17] was 3.11% and the “growth inhibition (GI)” value [18] was “inactive”. For the same compound, the inhibition of growth at 10 µM [19] was 18.6%, the inhibition of growth at 10 µM [20] was 14.2% and the “growth inhibition (GI)” value [21] was “inactive”. The inhibition of growth at 10 µM [22] was 10.7%, the inhibition of growth at 10 µM [23] was 18.6% and the inhibition of growth at 10 µM [24] was 7.8%. The inhibition of growth at 10 µM [25] was 23.2%, the “growth inhibition (GI)” value [26] was “inactive” and the inhibition of growth at 10 µM [27] was 13.8%. It also gave an inhibition of growth at 10 µM [28] of 9.45%, an inhibition of growth at 10 µM [29] of 12.2% and an inhibition of growth at 10 µM [30] of 11.5%. The inhibition of growth at 10 µM [31] was 9.21%, the “growth inhibition (GI)” value [32] was “inactive” and the inhibition of growth at 10 µM [33] was 3.99%. It also gave an inhibition of growth at 10 µM [34] of 8.21%, an inhibition of growth at 10 µM [35] of 39.3% and an inhibition of growth at 10 µM [36] of 4.79%. For the same compound, the inhibition of growth at 10 µM [37] was 14.3%, the inhibition of growth at 10 µM [38] was 8.48% and the inhibition of growth at 10 µM [39] was 1.09%. It also gave an inhibition of growth at 10 µM [40] of 3.68%, an inhibition of growth at 10 µM [41] of 5.26% and an inhibition of growth at 10 µM [42] of 2.84%. For the same compound, the inhibition of growth at 10 µM [43] was 10.4%, the inhibition of growth at 10 µM [44] was 7.88% and the inhibition of growth at 10 µM [45] was 10.6%. For the same compound, the inhibition of growth at 10 µM [46] was 10.8%, the “growth inhibition (GI)” value [47] was “inactive” and the “growth inhibition (GI)” value [48] was “inactive”. It also gave an inhibition of growth at 10 µM [49] of 13.2%, an inhibition of growth at 10 µM [50] of 3.96% and an inhibition of growth at 10 µM [51] of 1.3%. For the same compound, the inhibition of growth at 10 µM [52] was 10.6%, the inhibition of growth at 10 µM [53] was 21.9% and the inhibition of growth at 10 µM [54] was 15.2%. It also gave an inhibition of growth at 10 µM [55] of 10.2%, an inhibition of growth at 10 µM [56] of 37.6% and an inhibition of growth at 10 µM [57] of 14.4%.

— ChEMBL document CHEMBL3745645, “Synthesis, in vitro antitumor activity, dihydrofolate reductase inhibition, DNA intercalation and structure-activity relationship studies of 1,3,5-triazine analogues” (Bioorg Med Chem Lett, 2016)
